This is an account of results in US20240050434A1, “HORMAD1 THERAPEUTICS” (Royal Cancer Hospital, priority 2020, published 2024).

Structures are written as SMILES. “Also recorded” adds a separate entry of the source.

The target of one assay is AURORA B kinase (Homo sapiens, UniProt Q96GD4). As to conditions: competitive ATP inhibition; Mortlock et al., 2007; cited from earlier work.
For assay [1], the system named is RPE1 cells expressing a doxycycline-inducible HORMAD1 construct. Nature of the assay: Clonogenic survival assay (SRB) in RPE1 cells with doxycycline-inducible HORMAD1. Type of assay: cell-based. As to conditions: for clonogenic survival / sensitivity of HORMAD1 expressing versus HORMAD1-negative RPE1 cells: increasing doses, 7-14 days, normalised to vehicle. Here is the method:
Cell confluence was analysed every 6 hours for 10 days, using incucyte software. Data are from 3 biological replicates and analysed using a two-way ANOVA. […] RPE1 cells expressing a doxycycline-inducible HORMAD1 expression construct were exposed to doxycycline or vehicle (H2O) and were exposed to 20 nM of the Aurora B inhibitor, AZD1152-HQPA. Cell confluence was analysed every 6 hours for 10 days, using incucyte software. Data are from 3 biological replicates and analysed using a two-way ANOVA. […] 7-10 days post drugging, cells were fixed, stained with SRB, and colonies were counted using Cell Profiler. […] 10 days post drugging, cells were fixed, stained with SRB, and colonies were counted using Cell Profiler. […] RPE1 cells expressing a doxycycline-inducible HORMAD1 expression construct were exposed to doxycycline or vehicle (H2O) and to increasing doses of the Aurora B inhibitor, AZD1152-HQPA. 7-10 days post drugging, cells were fixed, stained with SRB, and colonies were counted using Cell Profiler. […] SUM159 cells expressing a doxycycline-inducible HORMAD1 expression construct were exposed to doxycycline or vehicle (H2O) and to increasing doses of the Aurora B inhibitor, AZD1152-HQPA. 10 days post drugging, cells were fixed, stained with SRB, and colonies were counted using Cell Profiler.
RPE1 cells were reverse transfected with BUB1 or control siRNA particles for 3 days. Cell lysates were collected, and analysed by western blotting using anti-BUB1 and anti-β-ACTIN antibodies. […] RPE1 cells expressing a doxycycline-inducible HORMAD1 expression construct were exposed to doxycycline or vehicle, and were reverse transfected with BUB1 or control siRNA particles. 5 days post transfection, cellular viability was estimated using cell titer glo reagent and surviving fractions were calculated relative to DMSO treated cells. […] Statistical significance estimated using a one-way ANOVA with Sidak's correction. C. Western blot illustrating expression of HORMAD1 in wild-type RPE1 cells and RPE1 cells depleted of BUB1 using CRISPR. WT and BUB1 depleted RPE1 cells expressing a doxycycline-inducible HORMAD1 expression construct, were exposed to doxycycline or vehicle for 3 days. Cell lysates were collected, and analysed by SDS-PAGE and western blotting using anti-HORMAD1, anti-H3 and anti-BUB1 antibodies. […] WT and BUB1 depleted RPE1 cells expressing a doxycycline-inducible HORMAD1 expression construct were exposed to doxycycline or vehicle. 7-10 days post doxycycline induction, cells were fixed, stained with SRB, and cellular viability was estimated using SRB absorbance readings. […] Statistical significance estimated using a one-way ANOVA with Sidak's correction. […] RPE1 expressing a doxycycline-inducible HORMAD1 expression construct, were exposed to doxycycline or vehicle. […] Cells were fixed, stained with SRB, and cellular viability was estimated using SRB absorbance readings. […] Cells were imaged every 4 hours, and confluence was continually measured using incucyte software. Growth curves were plotted, based on confluence. Data represent 3 biological replicas. […] Patient-derived organoids models were grown in culture and cell lysates collected and analysed using SDS-PAGE and western blotting using anti-HORMAD1 and anti-β-ACTIN antibodies. […] Cellular viability was estimated using cell titer glo reagent and surviving fractions were calculated relative to DMSO treated cells. […] Left, dose response curves for each organoid.

Assay [2] concerns SUM159 cells expressing a doxycycline-inducible HORMAD1 construct. Nature of the assay: Clonogenic survival assay (SRB) in SUM159 cells with doxycycline-inducible HORMAD1. Type of assay: cell-based. Conditions: increasing doses, 10-14 days, normalised to vehicle. Here is the method: Cell confluence was analysed every 6 hours for 10 days, using incucyte software. Data are from 3 biological replicates and analysed using a two-way ANOVA. […] RPE1 cells expressing a doxycycline-inducible HORMAD1 expression construct were exposed to doxycycline or vehicle (H2O) and were exposed to 20 nM of the Aurora B inhibitor, AZD1152-HQPA. Cell confluence was analysed every 6 hours for 10 days, using incucyte software. Data are from 3 biological replicates and analysed using a two-way ANOVA. […] 7-10 days post drugging, cells were fixed, stained with SRB, and colonies were counted using Cell Profiler. […] 10 days post drugging, cells were fixed, stained with SRB, and colonies were counted using Cell Profiler. […] 7-10 days post drugging, cells were fixed, stained with SRB, and colonies were counted using Cell Profiler. […] 10 days post drugging, cells were fixed, stained with SRB, and colonies were counted using Cell Profiler.
RPE1 and SUM159 cells expressing a doxycycline-inducible HORMAD1 construct were treated with doxycycline or vehicle. […] Surviving fractions were calculated (normalised to vehicle treated cells). […] Data from 3 replicas was analysed using 2-way ANOVA. […] Surviving fractions were calculated (normalised to vehicle treated cells). Data from 4 replicas was analysed using 2-way ANOVA. […]

Assay [3] deals with HORMAD1 positive organoid KCL625. Description: HORMAD1 positive organoid KCL625 viability by cell titer glo. Type of assay: cell-based. As to conditions: indicated doses, 10 days. Here is the method: Organoids were treated with the indicated doses of drug for 10 days and cell viability assessed by cell titer glo. Data is presented as mean and standard deviation of triplicate wells;
A general note: In ATP-based viability assays light output follows the ATP content of the culture.

Assay [4] relates to organoids from spontaneous tumours of WB1P mouse with or without human HORMAD1. Nature of the assay: Organoids from genetically engineered mouse model tumours, viability by cell titre glo. Type of assay: cell-based. Conditions: increasing doses, 14 days post drugging. From the text:
In a further experiment, HORMAD1 was expressed within a genetically engineered mouse model of triple-negative breast cancer (original model published in Annunziato et al., 2019). Human HORMAD1 was expressed in the WB1P mouse (Annunziato et al., 2019) using a transgene and derived organoids from spontaneous tumours.
Genetically engineered mouse models were generated by conditionally deleting BRCA1 and P53 in breast epithelia (Liu et al., 2007). Human HORMAD1 fused to luciferase was conditionally expressed under a breast-specific promoter. Spontaneous tumours from these mice were isolated and grown as organoids, treated with increasing doses of BUB1 inhibitor, BAY-1816032. 14 days post drugging, cell viability was estimated using cell titre glo reagent. Surviving fractions were calculated (normalised to vehicle treated cells). Data from 3 replicas, analysed using 2-way ANOVA.

Chain of AURORA B kinase (Q96GD4 whole entry): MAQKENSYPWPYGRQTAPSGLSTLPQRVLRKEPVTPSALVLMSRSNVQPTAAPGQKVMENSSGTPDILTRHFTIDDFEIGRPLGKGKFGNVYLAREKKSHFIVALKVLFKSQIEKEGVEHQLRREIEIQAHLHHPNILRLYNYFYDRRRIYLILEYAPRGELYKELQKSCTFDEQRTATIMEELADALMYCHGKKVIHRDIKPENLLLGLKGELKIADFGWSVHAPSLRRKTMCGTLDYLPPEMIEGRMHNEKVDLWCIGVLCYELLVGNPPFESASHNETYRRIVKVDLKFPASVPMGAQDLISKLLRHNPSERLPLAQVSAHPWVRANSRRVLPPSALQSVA

Take `CCN(CCO)CCCOc1ccc2c(Nc3cc(CC(=O)Nc4cccc(F)c4)[nH]n3)ncnc2c1` [AZD1152-HQPA]: the “inhibition of AURORA B kinase activity” value at AURORA B kinase is reported as “potently inhibits”. Further, the “clonogenic survival / sensitivity of HORMAD1 expressing versus HORMAD1-negative RPE1 cells” value in assay [1] is reported as “more effectively inhibited; also recorded: reduced clonogenic survival; also recorded: increased Aurora B inhibitor sensitivity”. Also, the “clonogenic survival / sensitivity of HORMAD1 expressing versus HORMAD1-negative SUM159 cells” value in assay [2] was “reduced clonogenic survival; also recorded: increased Aurora B inhibitor sensitivity”. In addition, the “sensitivity (surviving fraction versus DMSO) of organoid KCL625” value in assay [3] was “highly sensitive; also recorded: high sensitivity”.
With `COc1cnccc1Nc1nc(-c2nn(Cc3c(F)cc(OCCO)cc3F)c3ccccc23)ncc1OC` [BAY-1816032], the “reduction of clonogenic capacity of RPE1 cells in presence of HORMAD1 expression compared to RPE1 cells not expressing HORMAD1” value in assay [1] (10 days post drugging) is 60%. In addition, in assay [1], the “clonogenic survival / sensitivity of HORMAD1 expressing versus HORMAD1-negative RPE1 cells” value is recorded as “increased cellular sensitivity”. Also, the “growth inhibition of HORMAD1-expressing versus HORMAD1-negative mouse tumour organoids” value in assay [4] was “more effectively inhibited”.
